Experimental data as given in PubChem BioAssay (NCI).
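Protocol summary: plate cells (96-well), add compound at 5 concentrations, incubate 48 h, interpolate endpoints linearly. GI50: concentration for 50% inhibition of growth. TGI: concentration producing complete growth inhibition.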

Experiments:
Experiment in all cases: DTP human tumour cell line panel, 48 h
HCT-15 colon = system: HCT-15 colon
MOLT-4 leukemia = system: MOLT-4 leukemia
SNB-75 CNS = system: SNB-75 CNS
T-47D breast = system: T-47D breast
BT-549 breast = system: BT-549 breast
M14 melanoma = system: M14 melanoma
A498 renal = system: A498 renal
SN12C renal = system: SN12C renal
U251 CNS = system: U251 CNS
TK-10 renal = system: TK-10 renal
HT29 colon = system: HT29 colon
COLO 205 colon = system: COLO 205 colon
SK-MEL-28 melanoma = system: SK-MEL-28 melanoma
SF-295 CNS = system: SF-295 CNS
SW-620 colon = system: SW-620 colon
MDA-MB-435 = system: MDA-MB-435
A549 NSCLC = system: A549 NSCLC
RPMI-8226 leukemia = system: RPMI-8226 leukemia
SF-268 CNS = system: SF-268 CNS
UO-31 renal = system: UO-31 renal
PC-3 prostate = system: PC-3 prostate
OVCAR-3 ovarian = system: OVCAR-3 ovarian
MCF7 breast = system: MCF7 breast
786-0 renal = system: 786-0 renal
HS 578T breast = system: HS 578T breast
HCT-116 colon = system: HCT-116 colon
SR leukemia = system: SR leukemia
NCI-H522 lung = system: NCI-H522 lung
UACC-62 melanoma = system: UACC-62 melanoma
OVCAR-5 ovarian = system: OVCAR-5 ovarian
MALME-3M melanoma = system: MALME-3M melanoma
IGROV1 ovarian = system: IGROV1 ovarian
NCI-H460 lung = system: NCI-H460 lung
NCI-H23 lung = system: NCI-H23 lung
HL-60(TB) leukemia = system: HL-60(TB) leukemia
RXF 393 renal = system: RXF 393 renal
HOP-62 NSCLC = system: HOP-62 NSCLC
ACHN renal = system: ACHN renal
NCI/ADR-RES ovarian = system: NCI/ADR-RES ovarian
SF-539 CNS = system: SF-539 CNS
SK-MEL-5 melanoma = system: SK-MEL-5 melanoma
SK-OV-3 ovarian = system: SK-OV-3 ovarian
DU-145 prostate = system: DU-145 prostate
OVCAR-4 ovarian = system: OVCAR-4 ovarian
HOP-92 NSCLC = system: HOP-92 NSCLC
UACC-257 melanoma = system: UACC-257 melanoma
CCRF-CEM leukemia = system: CCRF-CEM leukemia
K-562 leukemia = system: K-562 leukemia
MDA-MB-468 breast = system: MDA-MB-468 breast
NCI-H226 lung = system: NCI-H226 lung
SNB-19 CNS = system: SNB-19 CNS
CAKI-1 renal = system: CAKI-1 renal
EKVX NSCLC = system: EKVX NSCLC
MDA-MB-231 breast = system: MDA-MB-231 breast
LOX IMVI melanoma = system: LOX IMVI melanoma
SK-MEL-2 melanoma = system: SK-MEL-2 melanoma
KM12 colon = system: KM12 colon
OVCAR-8 ovarian = system: OVCAR-8 ovarian
HCC-2998 colon = system: HCC-2998 colon

`NS(=O)(=O)c1ccc(N=Nc2c(O)n(CC(=O)Nc3ccccc3Cl)c3ccccc23)cc1` gave a GI50 (HCT-15 colon) of 3 µM, a TGI (HCT-15 colon) of 15.4 µM and a GI50 (MOLT-4 leukemia) of 3.19 µM. For the same molecule, the TGI (MOLT-4 leukemia) was 31.8 µM, the GI50 (SNB-75 CNS) was 2010 nM and the TGI (SNB-75 CNS) was 14.4 µM. The GI50 (T-47D breast) was 2950 nM, the TGI (T-47D breast) was 34.5 µM and the GI50 (BT-549 breast) was 2260 nM. For the same molecule, the TGI (BT-549 breast) was 6.79 µM, the GI50 (M14 melanoma) was 3.33 µM and the TGI (M14 melanoma) was 30.5 µM. For the same molecule, the GI50 (A498 renal) was 3.64 µM, the TGI (A498 renal) was 16 µM and the GI50 (SN12C renal) was 3.03 µM. For the same molecule, the TGI (SN12C renal) was 16.1 µM, the GI50 (U251 CNS) was 2810 nM and the TGI (U251 CNS) was 9.62 µM. It also gave a GI50 (TK-10 renal) of 10.8 µM, a TGI (TK-10 renal) of 34.5 µM and a GI50 (HT29 colon) of 2040 nM. For the same molecule, the TGI (HT29 colon) was 4.11 µM, the GI50 (COLO 205 colon) was 2050 nM and the TGI (COLO 205 colon) was 4.14 µM. It also gave a GI50 (SK-MEL-28 melanoma) of 2960 nM, a TGI (SK-MEL-28 melanoma) of 12.5 µM and a GI50 (SF-295 CNS) of 1670 nM. The TGI (SF-295 CNS) was 3.58 µM, the GI50 (SW-620 colon) was 2930 nM and the TGI (SW-620 colon) was 10.9 µM. The GI50 (MDA-MB-435) was 2610 nM, the TGI (MDA-MB-435) was 19.4 µM and the GI50 (A549 NSCLC) was 2910 nM. It also gave a TGI (A549 NSCLC) of 10.3 µM, a GI50 (RPMI-8226 leukemia) of 3.06 µM and a TGI (RPMI-8226 leukemia) of over 100 µM. The GI50 (SF-268 CNS) was 3.19 µM, the TGI (SF-268 CNS) was 21.9 µM and the GI50 (UO-31 renal) was 1720 nM. For the same molecule, the TGI (UO-31 renal) was 6.81 µM, the GI50 (PC-3 prostate) was 2760 nM and the TGI (PC-3 prostate) was 29.2 µM. The GI50 (OVCAR-3 ovarian) was 2560 nM, the TGI (OVCAR-3 ovarian) was 11.5 µM and the GI50 (MCF7 breast) was 1940 nM. It also gave a TGI (MCF7 breast) of 4.63 µM, a GI50 (786-0 renal) of 3.26 µM and a TGI (786-0 renal) of 12 µM. For the same molecule, the GI50 (HS 578T breast) was 3.23 µM, the TGI (HS 578T breast) was over 100 µM and the GI50 (HCT-116 colon) was 2940 nM. It also gave a TGI (HCT-116 colon) of 12.4 µM, a GI50 (SR leukemia) of 2820 nM and a TGI (SR leukemia) of over 100 µM. It also gave a GI50 (NCI-H522 lung) of 2780 nM, a TGI (NCI-H522 lung) of 15.3 µM and a GI50 (UACC-62 melanoma) of 1810 nM. For the same molecule, the TGI (UACC-62 melanoma) was 5.88 µM, the GI50 (OVCAR-5 ovarian) was 4.3 µM and the TGI (OVCAR-5 ovarian) was 22.7 µM. It also gave a GI50 (MALME-3M melanoma) of 1890 nM, a TGI (MALME-3M melanoma) of 6.91 µM and a GI50 (IGROV1 ovarian) of 4.59 µM. It also gave a TGI (IGROV1 ovarian) of 19.1 µM, a GI50 (NCI-H460 lung) of 3.1 µM and a TGI (NCI-H460 lung) of 10.8 µM. For the same molecule, the GI50 (NCI-H23 lung) was 3.19 µM, the TGI (NCI-H23 lung) was 12.2 µM and the GI50 (HL-60(TB) leukemia) was 2380 nM. For the same molecule, the TGI (HL-60(TB) leukemia) was 7.68 µM, the GI50 (RXF 393 renal) was 2140 nM and the TGI (RXF 393 renal) was 5.74 µM. It also gave a GI50 (HOP-62 NSCLC) of 2750 nM, a TGI (HOP-62 NSCLC) of 12.7 µM and a GI50 (ACHN renal) of 2210 nM. The TGI (ACHN renal) was 6.89 µM, the GI50 (NCI/ADR-RES ovarian) was 3.93 µM and the TGI (NCI/ADR-RES ovarian) was 50.3 µM. It also gave a GI50 (SF-539 CNS) of 1700 nM, a TGI (SF-539 CNS) of 4.17 µM and a GI50 (SK-MEL-5 melanoma) of 2120 nM. For the same molecule, the TGI (SK-MEL-5 melanoma) was 5.11 µM, the GI50 (SK-OV-3 ovarian) was 2540 nM and the TGI (SK-OV-3 ovarian) was 8.74 µM. It also gave a GI50 (DU-145 prostate) of 5.34 µM, a TGI (DU-145 prostate) of 23.1 µM and a GI50 (OVCAR-4 ovarian) of 4.57 µM. It also gave a TGI (OVCAR-4 ovarian) of 55.5 µM, a GI50 (HOP-92 NSCLC) of 2150 nM and a TGI (HOP-92 NSCLC) of 6.45 µM. It also gave a GI50 (UACC-257 melanoma) of 2890 nM, a TGI (UACC-257 melanoma) of 9.83 µM and a GI50 (CCRF-CEM leukemia) of 3.58 µM. The TGI (CCRF-CEM leukemia) was 23.2 µM, the GI50 (K-562 leukemia) was 3.66 µM and the TGI (K-562 leukemia) was over 100 µM. The GI50 (MDA-MB-468 breast) was 1810 nM, the TGI (MDA-MB-468 breast) was 3.8 µM and the GI50 (NCI-H226 lung) was 2500 nM. It also gave a TGI (NCI-H226 lung) of 8.45 µM, a GI50 (SNB-19 CNS) of 4.74 µM and a TGI (SNB-19 CNS) of 24.7 µM. It also gave a GI50 (CAKI-1 renal) of 1890 nM, a TGI (CAKI-1 renal) of 8.37 µM and a GI50 (EKVX NSCLC) of 4.09 µM. It also gave a TGI (EKVX NSCLC) of 36.1 µM, a GI50 (MDA-MB-231 breast) of 3.34 µM and a TGI (MDA-MB-231 breast) of 16 µM. The GI50 (LOX IMVI melanoma) was 3.28 µM, the TGI (LOX IMVI melanoma) was 15.1 µM and the GI50 (SK-MEL-2 melanoma) was 3.95 µM. For the same molecule, the TGI (SK-MEL-2 melanoma) was 21.1 µM, the GI50 (KM12 colon) was 2930 nM and the TGI (KM12 colon) was 12 µM. It also gave a GI50 (OVCAR-8 ovarian) of 2490 nM, a TGI (OVCAR-8 ovarian) of 6.85 µM and a GI50 (HCC-2998 colon) of 2380 nM. The TGI (HCC-2998 colon) was 6.35 µM.
